Assay results: PMC4979471 (Cell Death Discovery, 2015)
Read-outs that look alike come from different tables or passages of the source.

Legend:
[1] = system: human monocytic U937 cells; assay: TNF+zVAD-induced necroptosis, CellTiter-Glo; assay type: cell-based; settings: U-937, U937, overnight, read-out: IC50 blocking necroptosis
Description: (§1) Mouse fibrosarcoma L929 cells (ATCC# CCL-1) and human monocytic U937 cells (ATCC# CRL-1593.2) were cultured in RPMI media supplemented with 10% heat-inactivated FBS, 100 U/ml penicillin and […] streptomycin. BMDM were prepared from C57BL/6 mice by differentiation with 10 ng/ml M-CSF (R&D Systems) for 7 days and cultured in DMEM medium supplemented with 10% heat-inactivated FBS, 100 U/ml penicillin, 100 μg/ml streptomycin and 0.25 μg/ml amphotericin. Primary human neutrophils were isolated from human blood following the standard method comprised of sequential sedimentation in dextran, density centrifugation in Ficoll–Hypaque and lysis of contaminating red blood cells.
(§2) […] To evaluate the effect of RIP1 inhibitors, cells were pretreated with compound (dose–response) for 30 min. Induced cell death was evaluated 19–21 h later by measuring cellular ATP levels using CellTiter-Glo Luminescent Cell Viability assay (Promega, Fitchburg, WI, USA). To induce necroptosis in neutrophils, freshly isolated human neutrophils were stimulated with TNF (10 ng/ml), QVD-Oph (50 μM) and SMAC mimetic (100 nM). Induced cell death was evaluated as above.

[2] = system: mouse fibrosarcoma L929 cells; assay: TNF+zVAD-induced necroptosis, CellTiter-Glo; assay type: cell-based; settings: overnight, read-out: IC50 blocking necroptosis
Description: as §1, §2

[3] = system: primary human neutrophils; assay: TNF, zVAD and SMAC mimetic-induced necroptosis, CellTiter-Glo; assay type: cell-based; settings: Neutrophil, read-out: IC50 blocking necroptosis
Description: as §1
Necroptotic cell death was induced in BMDM, L929 and U937 cells with TNF in the presence of caspase inhibitor zVAD-FMK or QVD-Oph (BMDM: 50 ng/ml TNF+50 μM zVAD; L929: 100 ng/ml TNF+50 μM QVD; U937: 100 ng/ml TNF+25 μM QVD). To evaluate the effect of RIP1 inhibitors, cells were pretreated with compound (dose–response) for 30 min. Induced cell death was evaluated 19–21 h later by measuring cellular ATP levels using CellTiter-Glo Luminescent Cell Viability assay (Promega, Fitchburg, WI, USA). […] Induced cell death was evaluated as above.

[4] = molecular target: T1, FGFR2 (Homo sapiens, UniProt P21802); assay: Kinase selectivity, P33-radiolabeled assay; assay type: biochemical; settings: 10 μM ATP
T1 construct: purchased Reaction Biology Corp
T1 sequence (P21802 22-821): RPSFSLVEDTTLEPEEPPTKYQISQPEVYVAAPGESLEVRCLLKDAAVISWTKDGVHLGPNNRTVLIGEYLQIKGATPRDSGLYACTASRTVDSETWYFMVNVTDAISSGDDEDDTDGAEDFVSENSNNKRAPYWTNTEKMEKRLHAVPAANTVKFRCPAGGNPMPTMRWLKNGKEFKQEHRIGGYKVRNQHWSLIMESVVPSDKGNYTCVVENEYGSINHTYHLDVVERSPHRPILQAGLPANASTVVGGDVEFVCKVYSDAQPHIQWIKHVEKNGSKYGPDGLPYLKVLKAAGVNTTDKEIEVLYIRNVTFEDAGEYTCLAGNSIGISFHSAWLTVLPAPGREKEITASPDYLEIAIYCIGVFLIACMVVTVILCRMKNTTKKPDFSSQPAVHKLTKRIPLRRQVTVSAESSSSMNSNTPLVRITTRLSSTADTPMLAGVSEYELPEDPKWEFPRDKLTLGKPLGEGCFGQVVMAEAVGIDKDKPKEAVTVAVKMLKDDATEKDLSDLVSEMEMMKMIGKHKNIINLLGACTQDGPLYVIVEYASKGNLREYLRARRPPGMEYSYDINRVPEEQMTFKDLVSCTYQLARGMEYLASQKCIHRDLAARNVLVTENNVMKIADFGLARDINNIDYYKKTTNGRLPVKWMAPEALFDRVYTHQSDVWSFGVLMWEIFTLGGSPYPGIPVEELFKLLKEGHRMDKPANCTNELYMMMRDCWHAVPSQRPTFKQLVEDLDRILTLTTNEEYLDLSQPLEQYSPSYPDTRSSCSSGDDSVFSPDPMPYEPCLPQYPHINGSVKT
Description: (§3) The compound was tested at a single dose in duplicate at 10 μM. Reactions were carried out at 10 μM ATP. Data are reported as % enzyme activity (relative to DMSO controls). The full data set is shown in the Supplementary Table I.

[5] = molecular target: T2, PKCb1 (Homo sapiens, UniProt P05771); assay: Kinase selectivity, P33-radiolabeled assay; assay type: biochemical; settings: 10 μM ATP
T2 construct: purchased Reaction Biology Corp
T2 sequence (P05771 whole entry): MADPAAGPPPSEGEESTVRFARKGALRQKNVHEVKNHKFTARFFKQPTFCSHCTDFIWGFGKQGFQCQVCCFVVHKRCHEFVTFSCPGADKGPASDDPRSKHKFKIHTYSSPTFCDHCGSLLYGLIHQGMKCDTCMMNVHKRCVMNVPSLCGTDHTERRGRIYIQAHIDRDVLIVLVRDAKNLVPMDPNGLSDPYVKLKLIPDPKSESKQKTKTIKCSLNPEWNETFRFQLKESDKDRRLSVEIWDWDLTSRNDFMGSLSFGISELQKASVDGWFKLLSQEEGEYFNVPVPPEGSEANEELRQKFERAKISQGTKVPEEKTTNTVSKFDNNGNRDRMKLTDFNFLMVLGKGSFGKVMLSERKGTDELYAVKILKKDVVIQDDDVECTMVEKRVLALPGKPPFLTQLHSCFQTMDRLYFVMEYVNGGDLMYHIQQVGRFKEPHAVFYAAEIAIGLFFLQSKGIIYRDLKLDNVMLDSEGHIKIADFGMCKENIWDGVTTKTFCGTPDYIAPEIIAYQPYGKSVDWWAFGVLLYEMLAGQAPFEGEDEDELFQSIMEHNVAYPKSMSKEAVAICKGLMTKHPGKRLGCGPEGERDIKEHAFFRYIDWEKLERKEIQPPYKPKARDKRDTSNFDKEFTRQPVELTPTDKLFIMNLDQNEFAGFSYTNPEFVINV
Description: as §3

[6] = molecular target: T3, PKD2/PRKD2 (Homo sapiens, UniProt Q9BZL6); assay: Kinase selectivity, P33-radiolabeled assay; assay type: biochemical; settings: 10 μM ATP
T3 construct: purchased Reaction Biology Corp
T3 sequence (Q9BZL6 1-878): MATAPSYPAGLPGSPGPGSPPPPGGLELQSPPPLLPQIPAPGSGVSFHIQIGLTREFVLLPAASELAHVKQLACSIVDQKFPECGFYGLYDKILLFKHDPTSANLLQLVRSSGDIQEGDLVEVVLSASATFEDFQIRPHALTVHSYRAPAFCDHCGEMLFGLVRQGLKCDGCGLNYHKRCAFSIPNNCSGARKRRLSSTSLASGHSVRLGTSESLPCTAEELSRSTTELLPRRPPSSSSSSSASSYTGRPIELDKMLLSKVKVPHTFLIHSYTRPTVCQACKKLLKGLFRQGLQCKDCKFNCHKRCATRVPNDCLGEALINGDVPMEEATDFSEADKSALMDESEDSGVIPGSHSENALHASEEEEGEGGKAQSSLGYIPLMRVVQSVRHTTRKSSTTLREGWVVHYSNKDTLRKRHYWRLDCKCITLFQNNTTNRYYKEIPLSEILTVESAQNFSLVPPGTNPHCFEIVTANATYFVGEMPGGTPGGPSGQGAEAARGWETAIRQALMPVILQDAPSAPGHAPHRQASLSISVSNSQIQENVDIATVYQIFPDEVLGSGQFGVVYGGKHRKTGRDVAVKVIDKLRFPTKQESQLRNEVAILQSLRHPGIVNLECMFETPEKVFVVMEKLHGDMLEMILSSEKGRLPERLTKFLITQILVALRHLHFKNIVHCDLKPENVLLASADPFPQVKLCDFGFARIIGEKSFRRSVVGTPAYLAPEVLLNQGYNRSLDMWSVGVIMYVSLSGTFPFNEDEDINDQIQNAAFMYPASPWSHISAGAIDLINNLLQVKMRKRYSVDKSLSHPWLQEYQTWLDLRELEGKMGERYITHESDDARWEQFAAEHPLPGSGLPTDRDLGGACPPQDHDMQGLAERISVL
Description: as §3

[7] = molecular target: T4, WNK1 (Homo sapiens, UniProt Q9H4A3); assay: Kinase selectivity, P33-radiolabeled assay; assay type: biochemical; settings: 10 μM ATP
T4 construct: purchased Reaction Biology Corp
T4 sequence (Q9H4A3 whole entry): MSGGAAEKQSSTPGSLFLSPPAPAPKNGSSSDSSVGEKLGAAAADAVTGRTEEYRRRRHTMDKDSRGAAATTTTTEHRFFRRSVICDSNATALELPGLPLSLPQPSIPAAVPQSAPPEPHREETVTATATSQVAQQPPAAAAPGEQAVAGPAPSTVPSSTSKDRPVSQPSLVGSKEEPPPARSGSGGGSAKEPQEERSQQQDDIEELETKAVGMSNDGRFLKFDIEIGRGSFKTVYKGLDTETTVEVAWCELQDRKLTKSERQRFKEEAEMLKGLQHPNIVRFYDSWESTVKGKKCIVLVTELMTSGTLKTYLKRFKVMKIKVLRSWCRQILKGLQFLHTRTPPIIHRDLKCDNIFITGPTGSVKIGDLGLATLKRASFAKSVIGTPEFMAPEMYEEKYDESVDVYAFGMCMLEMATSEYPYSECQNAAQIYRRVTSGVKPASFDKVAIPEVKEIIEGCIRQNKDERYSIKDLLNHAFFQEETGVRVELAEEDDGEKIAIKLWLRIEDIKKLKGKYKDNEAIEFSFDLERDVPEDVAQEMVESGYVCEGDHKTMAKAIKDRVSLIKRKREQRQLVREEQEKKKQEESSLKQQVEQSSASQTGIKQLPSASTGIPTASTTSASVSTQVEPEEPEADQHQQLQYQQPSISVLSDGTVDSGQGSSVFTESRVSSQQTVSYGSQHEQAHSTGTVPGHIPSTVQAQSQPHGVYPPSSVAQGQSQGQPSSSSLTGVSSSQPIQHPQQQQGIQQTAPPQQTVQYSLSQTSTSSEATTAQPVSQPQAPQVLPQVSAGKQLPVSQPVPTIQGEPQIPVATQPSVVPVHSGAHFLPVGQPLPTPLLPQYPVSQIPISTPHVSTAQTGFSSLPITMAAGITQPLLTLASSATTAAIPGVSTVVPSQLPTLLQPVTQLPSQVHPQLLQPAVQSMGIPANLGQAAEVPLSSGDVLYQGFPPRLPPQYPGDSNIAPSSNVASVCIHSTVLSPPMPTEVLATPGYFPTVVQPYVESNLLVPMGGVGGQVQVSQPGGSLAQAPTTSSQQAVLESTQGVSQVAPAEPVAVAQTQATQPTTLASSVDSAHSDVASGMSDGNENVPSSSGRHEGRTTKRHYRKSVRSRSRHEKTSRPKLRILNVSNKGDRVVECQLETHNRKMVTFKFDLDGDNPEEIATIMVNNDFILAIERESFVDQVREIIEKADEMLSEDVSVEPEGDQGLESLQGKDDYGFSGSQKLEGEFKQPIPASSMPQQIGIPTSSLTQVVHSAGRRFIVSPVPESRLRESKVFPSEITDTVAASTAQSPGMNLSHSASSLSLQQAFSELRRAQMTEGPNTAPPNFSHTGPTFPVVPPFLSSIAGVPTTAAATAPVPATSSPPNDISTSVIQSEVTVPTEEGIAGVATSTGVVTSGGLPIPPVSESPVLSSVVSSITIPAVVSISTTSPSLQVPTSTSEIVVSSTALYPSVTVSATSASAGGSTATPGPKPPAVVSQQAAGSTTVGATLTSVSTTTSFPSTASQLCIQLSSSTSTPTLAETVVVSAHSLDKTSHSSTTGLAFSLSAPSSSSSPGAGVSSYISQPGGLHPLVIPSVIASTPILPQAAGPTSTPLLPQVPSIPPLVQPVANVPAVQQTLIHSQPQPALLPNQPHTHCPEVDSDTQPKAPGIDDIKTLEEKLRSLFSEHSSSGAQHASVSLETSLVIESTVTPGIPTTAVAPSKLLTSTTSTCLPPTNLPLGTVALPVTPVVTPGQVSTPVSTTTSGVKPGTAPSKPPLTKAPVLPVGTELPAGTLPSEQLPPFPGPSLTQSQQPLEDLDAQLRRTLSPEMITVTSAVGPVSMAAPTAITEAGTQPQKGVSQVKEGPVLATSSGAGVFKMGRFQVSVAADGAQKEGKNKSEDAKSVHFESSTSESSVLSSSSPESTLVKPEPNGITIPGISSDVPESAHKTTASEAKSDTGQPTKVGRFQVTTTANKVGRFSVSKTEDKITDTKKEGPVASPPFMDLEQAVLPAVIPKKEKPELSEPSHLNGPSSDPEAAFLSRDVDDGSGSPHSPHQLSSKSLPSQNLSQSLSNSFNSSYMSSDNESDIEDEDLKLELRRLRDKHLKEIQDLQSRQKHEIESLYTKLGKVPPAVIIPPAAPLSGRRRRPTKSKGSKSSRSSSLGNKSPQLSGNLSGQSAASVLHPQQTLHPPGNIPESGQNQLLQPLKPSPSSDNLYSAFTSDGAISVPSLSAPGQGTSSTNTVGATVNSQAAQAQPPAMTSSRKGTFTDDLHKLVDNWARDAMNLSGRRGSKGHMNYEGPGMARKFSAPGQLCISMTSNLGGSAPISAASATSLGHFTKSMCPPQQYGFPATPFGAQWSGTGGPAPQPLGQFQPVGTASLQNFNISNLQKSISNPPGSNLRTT
Description: as §3

[8] = Pharmacokinetic profile after i.p. administration; assay type: in vivo, C57BL/6 mice; settings: i.p., mice
Description: Briefly, pharmacokinetic studies were conducted using n=3 animals per group for each compound. […] Blood samples were obtained at various time points following intraperitoneal injection and diluted 1 : 1 with water prior to storage at −80 °C.
Prior to bioanalysis, samples were thawed and each analyte was isolated using a method based on protein precipitation. The resulting supernatant was injected into an LC/MS/MS system optimized for detection of the compound of interest. Data were reported as quantitative drug concentrations as determined by standard calibration curve analysis. Using these optimized conditions, the typical lower limit of quantitation achieved was 1.00 ng/ml for both compounds.

[9] = system: human and murine cells; assay: RIP1-dependent cell death, summary statements; assay type: cell-based; settings: read-out: IC50 inhibiting RIP1-dependent cell death
Description: Necroptotic cell death was induced in BMDM, L929 and U937 cells with TNF in the presence of caspase inhibitor zVAD-FMK or QVD-Oph (BMDM: 50 ng/ml TNF+50 μM zVAD; L929: 100 ng/ml TNF+50 μM QVD; U937: 100 ng/ml TNF+25 μM QVD). To evaluate the effect of RIP1 inhibitors, cells were pretreated with compound (dose–response) for 30 min. Induced cell death was evaluated 19–21 h later by measuring cellular ATP levels using CellTiter-Glo Luminescent Cell Viability assay (Promega, Fitchburg, WI, USA). To induce necroptosis in neutrophils, freshly isolated human neutrophils were stimulated with TNF (10 ng/ml), QVD-Oph (50 μM) and SMAC mimetic (100 nM). Induced cell death was evaluated as above.

[10] = read-out: % Enzyme Activity (relative to DMSO controls) AVG
[11] = read-out: % Enzyme Activity (relative to DMSO controls) Data 1
[12] = read-out: % Enzyme Activity (relative to DMSO controls) Data 2

CC(C)(C)C(=O)N1N=CC[C@H]1c1ccccc1 [GSK′963]
IC50 [1]: 4 nM | IC50 [2]: 1 nM | IC50 [3]: 0.9 nM | remaining activity at 10 µM [4, 10]: 110% | remaining activity at 10 µM [4, 11]: 108% | remaining activity at 10 µM [4, 12]: 112% | remaining activity at 10 µM [5, 10]: 97.8% | remaining activity at 10 µM [5, 11]: 96.7% | remaining activity at 10 µM [5, 12]: 98.9% | remaining activity at 10 µM [6, 10]: 102% | remaining activity at 10 µM [6, 11]: 101% | remaining activity at 10 µM [6, 12]: 104% | remaining activity at 10 µM [7, 10]: 81.7% | remaining activity at 10 µM [7, 11]: 78.3% | remaining activity at 10 µM [7, 12]: 85.1% | apparent half-life [8]: greater than that for Nec-1 | IC50 [9]: 1 to 4 nM
